Experimental data taken from patent US4362743A, “Antibacterial monic acid esters” (Beecham Group Limited, priority 1980, dated 1982).
Values after ≈ are worked out from the molar mass of the structure shown.

Legend:
Type in all cases: cell-based
Strep. Group C 64/848 = test: Human bacteria MIC; conditions: Strep. Group C 64/848; nutrient agar, 5% chocolated horse blood, 18 hours 37° C.; read-out: M.I.C.
Method: (§1) The values were determined by serial dilutions in nutrient agar with 5% chocolated horse blood after incubations for 18 hours at 37° C.

Strep. pyogenes R80/421 = test: Human bacteria MIC; conditions: Streptococcus pyogenes, R80/421, 18 h
Method: as §1

[1] = tested on: Neisseria catarralis 1502; test: Human bacteria MIC; conditions: Neisseria catarralis 1502; nutrient agar, 5% chocolated horse blood, 18 hours 37° C.; read-out: M.I.C.
Method: as §1

Staph. aureus Oxford = test: Human bacteria MIC; conditions: Staphylococcus aureus; Staph. aureus Oxford; nutrient agar, 5% chocolated horse blood, 18 hours 37° C.; read-out: M.I.C.
Method: as §1

Strep. faecalis I = test: Human bacteria MIC; conditions: Enterococcus faecalis, nutrient agar, 5% chocolated horse blood, 18 hours 37° C.
Method: as §1

E. coli ESS = test: Human bacteria MIC; conditions: Escherichia coli, 18 h
Method: as §1

[2] = tested on: Haemophilus influenzae Q1; test: Human bacteria MIC; conditions: Haemophilus influenzae, Q1, 18 h
Method: as §1

Strep. pneumoniae CN33 = test: Human bacteria MIC; conditions: Streptococcus pneumoniae; Strep. pneumoniae CN33; nutrient agar, 5% chocolated horse blood, 18 hours 37° C.; read-out: M.I.C.
Method: as §1

K. aerogenes A = test: Human bacteria MIC; conditions: Klebsiella aerogenes, 18 h
Method: as §1

E. Coli NCT 10418 = test: Human bacteria MIC; conditions: Escherichia coli, 18 h
Method: as §1

Bacillus subtilis 6633 = test: Human bacteria MIC; conditions: Bacillus subtilis, 6633, 18 h
Method: as §1

Staph. aureus W2827 = test: Human bacteria MIC; conditions: Staphylococcus aureus, W2827, 18 h
Method: as §1

Ps. aeruginosa 10662 = test: Human bacteria MIC; conditions: Pseudomonas aeruginosa, 10662, 18 h
Method: as §1

Strep Group B 2788 = test: Human bacteria MIC; conditions: Strep Group B 2788; nutrient agar, 5% chocolated horse blood, 18 hours 37° C.; read-out: M.I.C.
Method: as §1

[3] = tested on: Pasteurella multocida 1633; test: Human bacteria MIC; conditions: Pasteurella multocida 1633; nutrient agar, 5% chocolated horse blood, 18 hours 37° C.; read-out: M.I.C.
Method: as §1

P. mirabilis 889 = test: Human bacteria MIC; conditions: Proteus mirabilis, 889, 18 h
Method: as §1

[4] = tested on: Corneybacterium xerosis 9755; test: Human bacteria MIC; conditions: 18 h
Method: as §1

Staph. aureus Russell = test: Human bacteria MIC; conditions: Staphylococcus aureus; Staph. aureus Russell; nutrient agar, 5% chocolated horse blood, 18 hours 37° C.; read-out: M.I.C.
Method: as §1

M. suipneumoniae JF 435 = test: Anti-mycoplasmal activity in vitro MIC; conditions: Mesomycoplasma hyopneumoniae, JF435, 144 h
M. suipneumoniae Str. 11 = test: Anti-mycoplasmal activity in vitro MIC; conditions: Mesomycoplasma hyopneumoniae, 144 h; M. suipneumoniae Str. 11; Friis broth, 0.9% agarose, 6 days 37° C.; read-out: M.I.C.
M. hyorhinis ATCC 23234 = test: Anti-mycoplasmal activity in vitro MIC; conditions: Mesomycoplasma hyorhinis, ATCC23234, 144 h
[5] = tested on: M. suipneumoniae NCTC 10110; test: Anti-mycoplasmal activity in vitro MIC; conditions: Mesomycoplasma hyopneumoniae, NCTC10110, 144 h
[6] = tested on: M. suipneumoniae PW/C/210; test: Anti-mycoplasmal activity in vitro MIC; conditions: Mesomycoplasma hyopneumoniae, 144 h; M. suipneumoniae PW/C/210; Friis broth, 0.9% agarose, 6 days 37° C.; read-out: M.I.C.
[7] = tested on: M. hyosynoviae ATCC 25591; test: Anti-mycoplasmal activity in vitro MIC; conditions: 144 h
[8] = tested on: M. suipneumoniae ATCC 25095; test: Anti-mycoplasmal activity in vitro MIC; conditions: Mesomycoplasma hyopneumoniae, ATCC25095, 144 h; M. suipneumoniae ATCC 25095; Friis broth, 0.9% agarose, 6 days 37° C.; read-out: M.I.C.
[9] = tested on: M. suipneumoniae J2206/183b; test: Anti-mycoplasmal activity in vitro MIC; conditions: Mesomycoplasma hyopneumoniae, J2206/183B, 144 h
M. suipneumoniae TAM 6N = test: Anti-mycoplasmal activity in vitro MIC; conditions: Mesomycoplasma hyopneumoniae, TAM6N, 144 h

Q: What does the source list for C/C(=C\C(=O)OCc1ccc(C=NO)o1)C[C@@H]1OC[C@H](C[C@@H]2O[C@H]2[C@@H](C)[C@H](C)O)[C@@H](O)[C@H]1O [Example 7, 5-Hydroxyiminomethylfurfuryl monate A]?
A: MIC (Strep. Group C 64/848): 2.5 µg/mL (≈ 5.35 µM); MIC (Strep. pyogenes R80/421): 1 µg/mL (≈ 2.14 µM); MIC [1]: 0.25 µg/mL (≈ 0.535 µM); MIC (Staph. aureus Oxford): 2.5 µg/mL (≈ 5.35 µM); MIC (Strep. faecalis I): > 100 µg/mL; MIC (E. coli ESS): 2.5 µg/mL (≈ 5.35 µM); MIC [2]: 0.25 µg/mL (≈ 0.535 µM); MIC (Strep. pneumoniae CN33): 2.5 µg/mL (≈ 5.35 µM); MIC (K. aerogenes A): > 100 µg/mL; MIC (E. Coli NCT 10418): > 100 µg/mL; MIC (Bacillus subtilis 6633): 1 µg/mL (≈ 2.14 µM); MIC (Staph. aureus W2827): 5 µg/mL (≈ 10.7 µM); MIC (Ps. aeruginosa 10662): > 100 µg/mL; MIC (Strep Group B 2788): 2.5 µg/mL (≈ 5.35 µM); MIC [3]: 2.5 µg/mL (≈ 5.35 µM); MIC (P. mirabilis 889): > 100 µg/mL; MIC [4]: > 100 µg/mL; MIC (Staph. aureus Russell): 2.5 µg/mL (≈ 5.35 µM); MIC (M. suipneumoniae JF 435): 1 µg/mL (≈ 2.14 µM); MIC (M. suipneumoniae Str. 11): 0.5 µg/mL (≈ 1.07 µM); MIC (M. hyorhinis ATCC 23234): 0.5 µg/mL (≈ 1.07 µM); MIC [5]: 1 µg/mL (≈ 2.14 µM); MIC [6]: 0.5 µg/mL (≈ 1.07 µM); MIC [7]: 0.25 µg/mL (≈ 0.535 µM); MIC [8]: 0.5 µg/mL (≈ 1.07 µM); MIC [9]: 1 µg/mL (≈ 2.14 µM); MIC (M. suipneumoniae TAM 6N): 1 µg/mL (≈ 2.14 µM)
